Source: publication PMC9481151, “Discovery of new symmetrical and asymmetrical nitrile-containing 1,4-dihydropyridine derivatives as dual kinases and P-glycoprotein inhibitors: synthesis, in vitro assays, and in silico studies” (Journal of Enzyme Inhibition and Medicinal Chemistry, 2022)

Columns and labels:
CCRF-CEM = assay: NCI single dose (10 µM) SRB screen; format: cell-based, human; conditions: leukaemia, 48 h
NCI/ADR-RES = assay: NCI single dose (10 µM) SRB screen; format: cell-based, human; conditions: ovarian cancer, 48 h
Candida albicans = assay: Agar well diffusion method
HCT-116 = assay: NCI single dose (10 µM) SRB screen; format: cell-based, human; conditions: colon cancer, 48 h
RPMI-8226 = assay: NCI single dose (10 µM) SRB screen; format: cell-based, human; conditions: leukaemia, 48 h
T-47D = assay: NCI single dose (10 µM) SRB screen; format: cell-based, human; conditions: breast cancer, 48 h
U251 = assay: NCI single dose (10 µM) SRB screen; format: cell-based, human; conditions: CNS cancer, 48 h
OVCAR-5 = assay: NCI single dose (10 µM) SRB screen; format: cell-based, human; conditions: ovarian cancer, 48 h
SF-295 = assay: NCI single dose (10 µM) SRB screen; format: cell-based, human; conditions: CNS cancer, 48 h
Bacillus subtilis = assay: Agar well diffusion method
M14 = assay: NCI single dose (10 µM) SRB screen; format: cell-based, human; conditions: melanoma, 48 h
HT29 = assay: NCI single dose (10 µM) SRB screen; format: cell-based, human; conditions: colon cancer, 48 h
HOP-62 = assay: NCI single dose (10 µM) SRB screen; format: cell-based, human; conditions: non-small cell lung cancer, 48 h
COLO 205 = assay: NCI single dose (10 µM) SRB screen; format: cell-based, human; conditions: colon cancer, 48 h
SNB-19 = assay: NCI single dose (10 µM) SRB screen; format: cell-based, human; conditions: CNS cancer, 48 h
EKVX = assay: NCI single dose (10 µM) SRB screen; format: cell-based, human; conditions: non-small cell lung cancer, 48 h
NCI-H522 = assay: NCI single dose (10 µM) SRB screen; format: cell-based, human; conditions: non-small cell lung cancer, 48 h
NCI-H23 = assay: NCI single dose (10 µM) SRB screen; format: cell-based, human; conditions: non-small cell lung cancer, 48 h
Staphylococcus aureus = assay: Agar well diffusion method
HS578T = assay: NCI single dose (10 µM) SRB screen; format: cell-based, human; conditions: breast cancer, 48 h
OVCAR-3 = assay: NCI single dose (10 µM) SRB screen; format: cell-based, human; conditions: ovarian cancer, 48 h
K-562 = assay: NCI single dose (10 µM) SRB screen; format: cell-based, human; conditions: leukaemia, 48 h
PC-3 = assay: NCI single dose (10 µM) SRB screen; format: cell-based, human; conditions: prostate cancer, 48 h
NCI-H460 = assay: NCI single dose (10 µM) SRB screen; format: cell-based, human; conditions: non-small cell lung cancer, 48 h
DU-145 = assay: NCI single dose (10 µM) SRB screen; format: cell-based, human; conditions: prostate cancer, 48 h
SF-268 = assay: NCI single dose (10 µM) SRB screen; format: cell-based, human; conditions: CNS cancer, 48 h
SNB-75 = assay: NCI single dose (10 µM) SRB screen; format: cell-based, human; conditions: CNS cancer, 48 h
SW-620 = assay: NCI single dose (10 µM) SRB screen; format: cell-based, human; conditions: colon cancer, 48 h
SN12C = assay: NCI single dose (10 µM) SRB screen; format: cell-based, human; conditions: renal cancer, 48 h
SK-OV-3 = assay: NCI single dose (10 µM) SRB screen; format: cell-based, human; conditions: ovarian cancer, 48 h
SK-MEL-28 = assay: NCI single dose (10 µM) SRB screen; format: cell-based, human; conditions: melanoma, 48 h
SK-MEL-5 = assay: NCI single dose (10 µM) SRB screen; format: cell-based, human; conditions: melanoma, 48 h
MDA-MB-468 = assay: NCI single dose (10 µM) SRB screen; format: cell-based, human; conditions: breast cancer, 48 h
MOLT-4 = assay: NCI single dose (10 µM) SRB screen; format: cell-based, human; conditions: leukaemia, 48 h
MALME-3M = assay: NCI single dose (10 µM) SRB screen; format: cell-based, human; conditions: melanoma, 48 h
Pseudomonas aeruginosa = assay: Agar well diffusion method
MDA-MB-435 = assay: NCI single dose (10 µM) SRB screen; format: cell-based, human; conditions: melanoma, 48 h
SR = assay: NCI single dose (10 µM) SRB screen; format: cell-based, human; conditions: leukaemia, 48 h
Escherichia coli = assay: Agar well diffusion method
LOX IMVI = assay: NCI single dose (10 µM) SRB screen; format: cell-based, human; conditions: melanoma, 48 h
NCI 60 cancer cell lines = assay: NCI single dose (10 µM) SRB screen, mean over panel; format: cell-based, human; conditions: mean over 60 cell lines, 48 h
KM12 = assay: NCI single dose (10 µM) SRB screen; format: cell-based, human; conditions: colon cancer, 48 h
MDA-MB-231 = assay: NCI single dose (10 µM) SRB screen; format: cell-based, human; conditions: breast cancer, 48 h
SK-MEL-2 = assay: NCI single dose (10 µM) SRB screen; format: cell-based, human; conditions: melanoma, 48 h
HCC-2998 = assay: NCI single dose (10 µM) SRB screen; format: cell-based, human; conditions: colon cancer, 48 h
IGROV1 = assay: NCI single dose (10 µM) SRB screen; format: cell-based, human; conditions: ovarian cancer, 48 h
TK-10 = assay: NCI single dose (10 µM) SRB screen; format: cell-based, human; conditions: renal cancer, 48 h
NCI-H226 = assay: NCI single dose (10 µM) SRB screen; format: cell-based, human; conditions: non-small cell lung cancer, 48 h
HOP-92 = assay: NCI single dose (10 µM) SRB screen; format: cell-based, human; conditions: non-small cell lung cancer, 48 h
786-0 = assay: NCI single dose (10 µM) SRB screen; format: cell-based, human; conditions: renal cancer, 48 h
HCT-15 = assay: NCI single dose (10 µM) SRB screen; format: cell-based, human; conditions: colon cancer, 48 h

CC1=C(C(=O)OCc2ccccc2)C(c2cccc(C#N)c2)C(C(=O)OCc2ccccc2)=C(C)N1 [Compound 1g, Dibenzyl 4-(3-cyanophenyl)-2,6-dimethyl-1,4-dihydropyridine-3,5-dicarboxylate]
GI% CCRF-CEM (CCRF-CEM): 54% | GI% NCI/ADR-RES (NCI/ADR-RES): 45% | zone of inhibition at 1000 µg/mL (Candida albicans; Candida albicans, 24 h, read-out: Diameter of inhibition zone, C. albicans): 10 mm | % activity index, C. albicans (Candida albicans; relative to clotrimazole): 37% | GI% HCT-116 (HCT-116): 76% | GI% RPMI-8226 (RPMI-8226): 65% | GI% T-47D (T-47D): 53% | GI% U251 (U251): 49% | GI% OVCAR-5 (OVCAR-5): 19% | GI% SF-295 (SF-295): 56% | zone of inhibition at 1000 µg/mL (Bacillus subtilis; Bacillus subtilis, 24 h, read-out: Diameter of inhibition zone, B. subtilis): 11 mm | % activity index, B. subtilis (Bacillus subtilis; relative to ciprofloxacin): 47.8% | GI% M14 (M14): 35% | GI% HT29 (HT29): 48% | GI% HOP-62 (HOP-62): 10% | GI% COLO 205 (COLO 205): 47% | GI% SNB-19 (SNB-19): 32% | GI% EKVX (EKVX): 50% | GI% NCI-H522 (NCI-H522): 46% | GI% NCI-H23 (NCI-H23): 23% | zone of inhibition at 1000 µg/mL (Staphylococcus aureus; Staphylococcus aureus, 24 h, read-out: Diameter of inhibition zone, S. aureus): 15 mm | % activity index, S. aureus (Staphylococcus aureus; relative to ciprofloxacin): 62.5% | GI% HS578T (HS578T): 35% | GI% OVCAR-3 (OVCAR-3): 23% | GI% K-562 (K-562): 69% | GI% PC-3 (PC-3): 76% | GI% NCI-H460 (NCI-H460): 64% | GI% DU-145 (DU-145): 26% | GI% SF-268 (SF-268): 38% | GI% SNB-75 (SNB-75): 23% | GI% SW-620 (SW-620): 65% | GI% SN12C (SN12C): 32% | GI% SK-OV-3 (SK-OV-3): – (Only GI% ≥ 10 are shown) | GI% SK-MEL-28 (SK-MEL-28): 34% | GI% SK-MEL-5 (SK-MEL-5): 55% | GI% MDA-MB-468 (MDA-MB-468): 62% | GI% MOLT-4 (MOLT-4): 68% | GI% MALME-3M (MALME-3M): 32% | zone of inhibition at 1000 µg/mL (Pseudomonas aeruginosa; Pseudomonas aeruginosa, 24 h, read-out: Diameter of inhibition zone, P. aeruginosa): 16 mm | % activity index, P. aeruginosa (Pseudomonas aeruginosa; relative to ciprofloxacin): 69.6% | GI% MDA-MB-435 (MDA-MB-435): 36% | GI% SR (SR): 57% | zone of inhibition at 1000 µg/mL (Escherichia coli; Escherichia coli, 24 h, read-out: Diameter of inhibition zone, E. coli): 10 mm | % activity index, E. coli (Escherichia coli; relative to ciprofloxacin): 38.5% | GI% LOX IMVI (LOX IMVI): 65% | Mean GI% (NCI 60 cancer cell lines): 41% | GI% KM12 (KM12): 45% | GI% MDA-MB-231 (MDA-MB-231): 37% | GI% SK-MEL-2 (SK-MEL-2): 19% | GI% HCC-2998 (HCC-2998): – (Only GI% ≥ 10 are shown) | GI% IGROV1 (IGROV1): 45% | GI% TK-10 (TK-10): – (Only GI% ≥ 10 are shown) | GI% NCI-H226 (NCI-H226): 46% | GI% HOP-92 (HOP-92): 42% | GI% 786-0 (786-0): 32% | GI% HCT-15 (HCT-15): 72%
